Experiments:
[1] = test system: Pseudomonas aeruginosa ATCC® 27853™; type: cell-based; conditions: 3.12-25 μM; 180 minutes
Outline: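 P. aeruginosa ATCC 27853 at 1×10^6 CFU/ml incubated 180 min with peptides (25–3.12 μM, pH 5.5 or 7.2; or 150–37.5 μg/ml, pH 5.5) versus tryptone saline; gentamicin 4 μg/ml control. Surviving CFU counted after overnight plating, expressed as log reduction in CFU/ml.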

[2] = test system: Acinetobacter baumannii ATCC® BAA-747™; type: cell-based; conditions: 3.12-25 μM; 60 minutes
Outline: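 Peptides at 25, 12.5, 6.25 and 3.12 μM were incubated with 1×10^6 CFU/ml bacteria at pH 5.5 or 7.2, with tryptone saline as negative control and gentamicin (4 μg/ml) as positive control. Incubation was 60 min for A. baumannii and 180 min for P. aeruginosa. Surviving CFU counted after overnight plating, expressed as log reduction in CFU/ml.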

corneas = test: Corneal cytokines after intrastromal injection (MILLIPLEX MAP mouse cytokine assay); type: in vivo; conditions: intrastromal 0.5 μl, 10^−4, 10^−5, 10^−6 M; 24 and 48 hours
Experimental: Corneas were injected intrastromally with 0.5 μl of peptide 95-122 at a final concentration of 10^−4 M, 10^−5 M, and 10^−6 M and vehicle (saline) control. Corneas were collected and flash frozen at 24 hours and 48 hours. Corneal lysates were analyzed for cytokines using the MILLIPLEX® MAP mouse cytokine assay for IL-7 (A), IL-15 (B), IFN-γ (C), MIP1-α (D) (EMD Millipore Corp., Billerica, Mass.). The means of independent experimental values are shown ±SEM. ***P<0.001, **P<0.01, *P<0.05 by unpaired t-test as compared to vehicle treated controls. […] Corneas were injected intrastromally with 0.5 μl of peptide 95-122 at a final concentration of 10^−4 M, 10^−5 M, and 10^−6 M and vehicle (saline) control. Corneas were collected and flash frozen at 24 hours and 48 hours. Corneal lysates were analyzed for cytokines using the MILLIPLEX® MAP mouse cytokine assay for MIP1-β (EMD Millipore Corp., Billerica, Mass.). **P<0.01, *P<0.05 by unpaired t-test as compared to vehicle treated controls. […] Corneas were injected intrastromally with 0.5 μl of peptide 95-122 at a final concentration of 10^−4 M, 10^−5 M, and 10^−6 M and vehicle (saline) control. Corneas were collected and flash frozen at 24 hours and 48 hours. Corneal lysates were analyzed for cytokines using the MILLIPLEX® MAP mouse cytokine assay for KC (A), IL-1β (B), and GM-CSF (C) (EMD Millipore Corp., Billerica, Mass.). **P<0.01, *P<0.05 by unpaired t-test as compared to vehicle treated controls.

swine skin wounds [3] = test: Swine dermal wound model, histological evaluation; type: in vivo; conditions: day 14 post-wounding
Experimental: The characteristics that were measured are required to indicate features of a well-healed wound. Inflammation should be low and re-epithelialization high.
(§1) Full thickness excisional wounds were induced on the dorsum of swine (N=3) using a 1.0 cm biopsy punch. Treatments were administered (0.20 ml) to each wound (N=6 wounds per group), and the wounds were dressed with standard occlusive dressing ([…]™, 3M Corporation, St. Paul, Minn.). Treatments were reapplied daily and dressings changed. Clinical wound healing observations and wound area (2 mm) measurements were performed on days 0, 3, 5, 7, 10, and 14 post-wounding. Wound area (2 mm) data were expressed as percentage (%) of wound healing. Animals were terminated on day 14 with wounds harvested and processed for histological evaluation. […] All peptide formulation treatment groups healed faster with greater rate of closure and re-epithelialization over time, as compared to the saline control (Group A).
The histology correlated with the clinical observations. […] There were minimal differences in the amount or character of granulation tissue, inflammation, and angiogenesis. All the wounds were well filled and vascularized.

swine skin wounds [4] = test: Swine full thickness excisional dermal wound model, wound area; type: in vivo
Experimental: In this Example, peptide compounds of the presently disclosed and claimed inventive concept(s) were evaluated as to their activity on the dermal wound healing process in a clinically relevant swine full thickness excisional wound model. Three different peptide formulations (Group B, Peptide 95-122 (SEQ ID NO: 26); Group C, Peptide 120-146WH (SEQ ID NO: 31); and Group D, Peptide 120-146QH-5RMP (SEQ ID NO: 33)) were each evaluated at the same concentration (3 mg/ml). Sterile saline served as the control (Group A).
as §1

[5] = 3 mg/ml, 0.20 ml per wound, reapplied daily

“LDREANLTSSVTILPLPLQNATVEAGTR (listed as Homo sapiens) [Peptide 95-122]” was tested. Which “activity against Pseudomonas aeruginosa at either pH (5.5, 7.2)” value [1] did it give?
The value was “not active”.

And the “activity against Acinetobacter at either pH (5.5, 7.2)” value [2]?
Its value is “not active”.

What about the “GM-CSF in corneal lysates” value (corneas) of the same sequence?
The value was “significantly increases”.

What about the “IFN-γ in corneal lysates” value (corneas) of the same sequence?
Its value is “significantly increases”.

And the “IL-1β in corneal lysates” value (corneas)?
Its value is “significantly increases”.

What about the “IL-7 in corneal lysates” value (corneas) of the same sequence?
The value was “significantly increases”.

And the “IL-15 in corneal lysates” value (corneas)?
Its value is “significantly increases”.

And the “KC in corneal lysates” value (corneas)?
Its value is “significantly increases”.

And the “MIP1-0 (MIP1-β) in corneal lysates” value (corneas)?
Its value is “significantly increases”.

What about the “MIP1-α in corneal lysates” value (corneas) of the same sequence?
Its value is “significantly increases”.

What about the “epidermal resurfacing and maturation of the epidermis versus saline control” value (swine skin wounds [3]) of the same sequence?
Its value is “greater extent of epidermal resurfacing and maturation of the epidermis”.

What about the “Histopathology Results, Mean Angiogenesis” value (swine skin wounds [3]; 3 mg/ml) of the same sequence?
Its value is 2.3.

And the “Histopathology Results, Mean Epithelization” value (swine skin wounds [3]; 3 mg/ml)?
Its value is 4.0.

And the “Histopathology Results, Mean Granulation” value (swine skin wounds [3]; 3 mg/ml)?
The value was 4.0.

And the “Histopathology Results, Mean Inflammation” value (swine skin wounds [3]; 3 mg/ml)?
The value was 0.5.

And the “Mean Wound Healing (%) Day 0” value (swine skin wounds [4]; [5])?
The value was 0.0%.

What about the “Mean Wound Healing (%) Day 3” value (swine skin wounds [4]; [5]) of the same sequence?
The value was 28.9%.

And the “Mean Wound Healing (%) Day 5” value (swine skin wounds [4]; [5])?
Its value is 41.5%.

What about the “Mean Wound Healing (%) Day 7” value (swine skin wounds [4]; [5]) of the same sequence?
Its value is 70.8%.

What about the “Mean Wound Healing (%) Day 10” value (swine skin wounds [4]; [5]) of the same sequence?
Its value is 99.7%.

And the “Mean Wound Healing (%) Day 14” value (swine skin wounds [4]; [5])?
Its value is 100.0%.

What about the “dermal wound healing” value (swine skin wounds [4]; topical 3 mg/ml over 14 days, vs saline) of the same sequence?
Its value is “accelerate dermal wound healing”.
